Results from article PMC10747112, “Triphenylphosphine Derivatives of Allylbenzenes Express Antitumor and Adjuvant Activity When Solubilized with Cyclodextrin-Based Formulations” (Pharmaceuticals, 2023).

Assays:
[1] = Dissociation constants of complexes with γ-CD by FTIR spectroscopy (Hill fit); format: physicochemical; conditions: complex formed in molar excess of X approximately 1.2–1.4, PBS
From the text: FTIR spectroscopy provides valuable data on the interaction of molecules, including those applicable to characterize the non-covalent complexes of apiol-PPh3 (and analogues) with cyclodextrins and heparin. In the FTIR spectra of apiol-PPh3 and analogues (Figure 3a), one characteristic is the bands of valence oscillations of the bonds C=C of the aromatic system (1450–1650 cm^−1) overlapping with the bands of deformation oscillations C-H (1400–1500 cm^−1). The intensity of these peaks increases with the formation of non-covalent complexes of apiol-PPh3 and its analogues with cyclodextrins and heparin due to the transition of the solid phase into solution. Linear fitting of the intensity of peaks in the FTIR spectra on the cyclodextrin or heparin concentration (Section 2.3) in Hill coordinates allows determining the dissociation constants of the complexes (Table 2). The interactions of triphenylphosphine derivatives of allylbenzenes with γ-CD is rather weak (Kd 10 mM values). In the case of M-β-CD, the dissociation constants reach millimolar values, which is sufficient to obtain soluble forms of adjuvants (Table 2). Thus, the β-cyclodextrin derivatives are more suitable in terms of size for inclusion of the adjuvants studied. […] Comparing the values of the dissociation constants of alkylbenzenes and PPh3-derivatives complexes with cyclodextrins, we observed that these Kd values are close, which means that it is the allylbenzene-fragment (of apiol-PPh3) that plunges into the cyclodextrin cavity, and the triphenylphosphine radical looks outward (Figure 3b), which would provide the implementation of mitochondrial targeting of the developed formulations.
Non-covalent complexes of apiol, apiol-PPh3 and analogues with cyclodextrins (with different molar ratios) and heparin (15 kDa, 1:1 w/w) were obtained by adding solutions of cyclodextrins (100 mg/mL) or heparin (20 mg/mL) in PBS to apiol or apiol-PPh3 (or analogues) samples (2–3 mg). The excess of CDs or heparin was varied from 0.04 to 10 mol/mol. Then, mixtures were incubated for 1 h at 40 °C. Cyclodextrin or heparin are necessary for the solubilization of extremely poorly soluble compounds.
The ATR-FTIR spectra of samples (Section 3.3) were acquired using a Bruker Tensor 27 spectrometer equipped with a liquid N2 cooled MCT (mercury cadmium telluride) detector. Samples were placed in a thermostatic cell BioATR-II with ZnSe ATR element (Bruker, Germany). FTIR spectra were recorded from 850 to 4000 cm^−1 with 1 cm^−1 spectral resolution; 50 scans were accumulated and averaged. Spectral data were processed using the Bruker software system Opus 8.2.28 (Bruker, Germany). The spectrum of cyclodextrin or heparin in the corresponding concentration was subtracted from the spectra of the complexes. […]

[2] = Solubility by UV spectroscopy (PBS, with and without M-β-CD); format: physicochemical; conditions: for solubility: aqueous buffer, thermodynamic from solid
Description: On the contrary, their complexes with M-β-CD are soluble, and a clear peak in the UV spectrum is pronounced (225 nm). Based on UV spectra data in the presence of M-β-CD, the increase in solubility of apiol-PPh3 and analogues by a second order of magnitude is observed (Table 2).
The solubility of apiol and apiol-PPh3 (or analogues) in aqueous solution was determined by UV spectroscopy. UV spectra were recorded on the UltraSpec 2100 pro device (AmerSham Biosciences, Cambridge, UK) three times. The substances were dissolved in acetonitrile followed by recording the UV spectra at various cytostatics’ concentrations, and then we plotted calibration dependencies. Next, saturated solutions of substances in water were prepared, and the spectra of the aqueous solutions were recorded. Considering the extinction coefficients in water and acetonitrile to be approximately equal, the solubility was determined.

A549 cells = experiment: MTT assay, cytotoxic activity against A549; format: cell-based; conditions: Homo sapiens, A549; X in M-β-CD 1:5 mol/mol; MTT; read-out: −lg (IC50) of X in M-β-CD against A549 (converted)
Description: Concentrations of the active substance varied from 10^−2 to 10^−4 M. For MTT assay and biological experiments, substances in the concentration range from 10^−3 to 10^−9 M were studied by the dilution of initial ones in a cell growth medium or buffer.
Adenocarcinomic human alveolar basal epithelial cells A549 cell lines (Manassas, VA, USA) were cultured in RPMI-1640 medium, linear cells of the embryonic kidney human epithelium (HEK293T) were grown in DMEM medium as described earlier. Cell lines were obtained from Lomonosov Moscow State University Depository of Live Systems Collection and Laboratory of Medical Biotechnology, Institute of Biomedical Chemistry (Moscow, Russia).
The cytotoxic activity of paclitaxel, Apiol-PPh3 and analogues was determined using an MTT test. Paclitaxel-adjuvant synergism coefficients (SC) were calculated as CV (paclitaxel) × CV (alone adjuvant)/CV (combo paclitaxel + adjuvant), where CV represents the cell viability. The synergy coefficient can be interpreted as strong synergy (SC > 2), synergy (2 > SC > 1.2), indifference/additivity (1.2 > SC > 0.8), antagonism (0.8 > SC > 0.5), and inhibition (SC < 0.5), as described earlier.

whole blood = experiment: Thrombogenicity (whole blood thrombosis); conditions: 0.1 mg/mL
From the text: Hemolytic activity and thrombogenicity are the primary parameters for evaluating the safety of medical formulations. The phenotypic sea urchin embryo assay developed by colleagues is a visual way to study the toxicity of formulations in vivo. The sea urchin and human genomes contain more than 7000 common genes, including orthologs associated with a number of human diseases. Therefore, sea urchins can be considered as a reliable and versatile model organism for studying the safety of new and existing cytotoxic formulations in vivo. Table 5 presents data on the % of erythrocyte hemolysis, the degree of whole blood thrombosis of apiol-PPh3 and analogues, and data of phenotypic sea urchin embryo assay. Thus, the non-toxicity of PPh3 derivatives of allylbenzenes for normal non-cancer cells, as well as the selectivity of action against cancer cells, is shown. The selectivity of cytotoxic action against cancer cells in comparison with normal cells can be explained by the fact that the PPh3- cation provides selective accumulation and reduction in the mitochondrial membrane potential of the transformed cancer cells. Cyclodextrin (M-β-CD) and heparin are non-toxic (and approved by the FDA for intravenous application).
The hemolytic activity and thrombogenicity of apiol-PPh3 and analogues were studied using an earlier published technique.

Row | SMILES | −lg Kd (X − γ-CD) [1] | Solubility in the Presence of 0.05 M M-β-CD [2] [µM] | solubility [2] [µM] | IC50 (A549 cells) [µM] | Thrombosis Index (whole blood) [%]
1 | COc1cc(CCC[P+](c2ccccc2)(c2ccccc2)c2ccccc2)c(OC)c(OC)c1OC [Allyltetramethoxybenzene-PPh3] | 2.1 ± 0.2 | 17000 ± 5000 | 70 ± 10 | 15.8 | 0.7 ± 0.2
2 | COc1cc(CCC[P+](c2ccccc2)(c2ccccc2)c2ccccc2)cc2c1OCO2 [Myristicin-PPh3] | 1.3 ± 0.1 | 12000 ± 3000 | 40 ± 5 | 5.01 | 1.5 ± 0.2
3 | COc1cc(CCC[P+](c2ccccc2)(c2ccccc2)c2ccccc2)c(OC)c2c1OCO2 [Apiol-PPh3] | 1.2 ± 0.2 | 15000 ± 2000 | 80 ± 10 | 1.58 | 1.1 ± 0.2
4 | COc1c(CCC[P+](c2ccccc2)(c2ccccc2)c2ccccc2)cc2c(c1OC)OCO2 [Dillapiol-PPh3] | 1.4 ± 0.3 | 8000 ± 1000 | 90 ± 10 | 2.51 | 1.0 ± 0.1
